Source: publication PMC11300463, “Structure basis for sugar specificity of gustatory receptors in insects” (Cell Discovery, 2024)

What was measured:
Assay type in all cases: cell-based
DmGr64a [1] = target: T1, DmGr64a (Drosophila melanogaster, UniProt P83293); test: calcium imaging, HEK293 cells; details: activation
T1 construct: gene Gr64a; expressed in HEK293 cells for function; purified homotetramer for cryo-EM; residues Y234, W260, F333, L338, L339, F342, E399, F403, I420, V438, L439, Q441
T1 sequence (P83293 1-456): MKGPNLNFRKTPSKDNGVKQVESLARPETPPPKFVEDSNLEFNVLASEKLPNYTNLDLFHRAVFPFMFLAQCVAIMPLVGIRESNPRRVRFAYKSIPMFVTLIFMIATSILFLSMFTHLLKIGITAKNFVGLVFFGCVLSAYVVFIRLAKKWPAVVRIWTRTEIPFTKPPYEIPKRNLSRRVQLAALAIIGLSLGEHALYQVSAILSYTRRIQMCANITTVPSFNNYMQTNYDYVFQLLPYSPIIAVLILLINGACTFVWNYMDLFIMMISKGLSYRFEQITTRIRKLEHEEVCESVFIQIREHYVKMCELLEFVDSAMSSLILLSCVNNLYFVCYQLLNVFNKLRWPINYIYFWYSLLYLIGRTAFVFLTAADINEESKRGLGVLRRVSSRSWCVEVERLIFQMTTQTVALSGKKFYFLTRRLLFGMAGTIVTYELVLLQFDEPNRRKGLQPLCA

DmoGr43a = target: T2, DmoGr43a (Drosophila mojavensis, UniProt B4KNE2); test: electrophysiology, HEK293 cells; details: activation; also calcium imaging; cryo-EM structure of complex
T2 construct: gene Dmoj\GI20824; expressed in HEK293 cells for function; purified homotetramer for cryo-EM; printed residues R70, Y312, F313, F315, L386, I418, L419, I420, F422
T2 sequence (B4KNE2 1-427): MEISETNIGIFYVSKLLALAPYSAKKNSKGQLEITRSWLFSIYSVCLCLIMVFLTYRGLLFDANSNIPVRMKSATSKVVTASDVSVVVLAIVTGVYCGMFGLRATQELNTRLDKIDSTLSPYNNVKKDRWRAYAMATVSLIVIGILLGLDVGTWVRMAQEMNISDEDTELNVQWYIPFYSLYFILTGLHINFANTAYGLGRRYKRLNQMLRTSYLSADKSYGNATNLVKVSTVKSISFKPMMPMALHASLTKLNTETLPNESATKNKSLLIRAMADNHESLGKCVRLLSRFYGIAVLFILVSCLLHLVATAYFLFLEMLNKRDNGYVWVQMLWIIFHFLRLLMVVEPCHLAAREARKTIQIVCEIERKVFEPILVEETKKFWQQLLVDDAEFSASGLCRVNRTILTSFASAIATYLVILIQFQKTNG

DmGr64a [2] = target: T1, DmGr64a; test: calcium imaging, HEK293 cells

| Compound | calcium imaging, HEK293 cells (DmGr64a [1]) | EC50 (DmoGr43a) [mM] | EC50 (DmGr64a [2]) [mM] |
| --- | --- | --- | --- |
| OCC1(O)OC[C@@H](O)[C@@H](O)[C@@H]1O (some centres unmarked) [fructose] | several sugars including fructose, trehalose, sucrose and maltose were able to activate DmGr64a | 43 ± 4.69 | – |
| OC[C@H]1O[C@@](CO)(O[C@H]2O[C@H](CO)[C@@H](O)[C@H](O)[C@H]2O)[C@@H](O)[C@@H]1O [sucrose] | – | – | ~1.77 |
| OC[C@H]1O[C@H](O[C@H]2[C@H](O)[C@@H](O)C(O)O[C@@H]2CO)[C@H](O)[C@@H](O)[C@@H]1O (some centres unmarked) [maltose] | several sugars including fructose, trehalose, sucrose and maltose were able to activate DmGr64a | – | – |
| OC[C@H]1O[C@H](O[C@H]2O[C@H](CO)[C@@H](O)[C@H](O)[C@H]2O)[C@H](O)[C@@H](O)[C@@H]1O [trehalose] | several sugars including fructose, trehalose, sucrose and maltose were able to activate DmGr64a | – | – |
